# Experimental data from patent publication US8507199B2, “Multi-color time resolved fluorophores based on macrocyclic lanthanide complexes” (Lumiphore, Inc., priority 2007, dated 2013).
# “And” between values parts separate entries of the source, which are not always exact repeats. Equal entries are not always repeated.
# How the values were obtained:
# [1] = Luminescence lifetime decay (biexponential fit) of FITC-Tb-BH22IAM conjugate; format: physicochemical; conditions: Tb-coordinated conjugate, excitation at BH22IAM absorption (~340 nm), emission at 520 nm
# Text: A short lifetime corresponding to the direct excitation of fluorescein (3.92 nsec) and a long lifetime corresponding to excitation of BH22IAM and energy transfer to fluorescein (524 nsec).
# In another exemplary embodiment, the compounds of the invention emit light at an emission wavelength of the fluorophore attached to the metal chelate through the acceptor-linker. […] For example, compound 3, when coordinated to terbium and excited at a BH22IAM absorption wavelength (˜340 nm), the metal chelate emits at 520 nm, the characteristic wavelength of fluorescein with a lifetime of 524 nsec. The new lifetime is over 100-fold longer than the lifetime for a fluorescein solution that is directly excited (<5 nsec).
# The 524 nsec of the conjugated fluorescein is acquired through direct excitation of the Tb-BH22IAM complex at 340 nm, which normally has a very long lifetime (2.6 msec), followed by energy transfer to the conjugated fluorescein and emission at the characteristic wavelength for fluorescein (520 nm).
# [2] = Steady-state absorption and emission spectra; format: physicochemical
# Text: FIG. 8 is a steady-state absorption spectrum of FITC-BH22IAM conjugate.
smiles,measurement,setting,value
O=C(O)c1cc(NC(=S)NCCCCC2CN3CCNC(=O)c4cccc(c4O)C(=O)NCCN(CCNC(=O)c4cccc(c4O)C(=O)N2)CCN2CCNC(=O)c4cccc(c4O)C(=O)NCCN(CCNC(=O)c4cccc(c4O)C(=O)NCC2)CC3)ccc1-c1c2ccc(=O)cc-2oc2cc(O)ccc12 (stereo not drawn) [Compound 4a],long lifetime corresponding to excitation of BH22IAM and energy transfer to fluorescein,[1],520 nsec and 524 nsec
same,absorption maxima,"[2]; 340 nm assigned to BH22IAM, 490 nm to fluorescein",340 nm and 490 nm
same,emission wavelength / emission maxima,[2]; excitation at BH22IAM absorption (~340 nm),520 nm
